Assay results from PubChem BioAssay AID1259407 (Chemical Carcinogenesis Research Information System (CCRIS), 2018).
The source made the active and inactive calls. How the calls were made is not given here.

System: CCRIS mutagenicity, Ames/micronucleus/aberration tests
Test: CCRIS mutagenicity studies

Q: How did the mutagenic call (Test System: AMES SALMONELLA TYPHIMURIUM, Strain/Indicator: TA1535ER, Metabolic Activation: NONE, Method: STANDARD PLATE) turn out when `CN(C)N=O` was run?
A: inactive; negative

Q: And the mutagenic call (Test System: AMES SALMONELLA TYPHIMURIUM, Strain/Indicator: TA1975, Metabolic Activation: RAT, LIVER, S-9, AROCLOR 1254, Method: PREINCUBATION)?
A: active; positive

Q: What about the mutagenic call (Test System: AMES SALMONELLA TYPHIMURIUM, Strain/Indicator: TA2410, Metabolic Activation: NONE, Method: HOST-MEDIATED) of the same molecule?
A: active; positive

Q: What about the mutagenic call (Test System: AMES SALMONELLA TYPHIMURIUM, Strain/Indicator: TA2638, Metabolic Activation: NONE, Method: PREINCUBATION) of the same molecule?
A: active; positive

Q: What about the mutagenic call (Test System: AMES SALMONELLA TYPHIMURIUM, Strain/Indicator: TA2659, Metabolic Activation: NONE, Method: PREINCUBATION) of the same molecule?
A: inactive; negative

Q: What about the mutagenic call (Test System: AMES SALMONELLA TYPHIMURIUM, Strain/Indicator: TA2678, Metabolic Activation: NONE, Method: HOST-MEDIATED) of the same molecule?
A: active; positive

Q: What about the mutagenic call (Test System: AMES SALMONELLA TYPHIMURIUM, Strain/Indicator: YG7100, Metabolic Activation: S-9, Method: PREINCUBATION) of the same molecule?
A: active; positive

Q: And the mutagenic call (Test System: AMES SALMONELLA TYPHIMURIUM, Strain/Indicator: YG7104, Metabolic Activation: RAT LIVER S-9, ETHANOL (4%), Method: PREINCUBATION)?
A: active; positive

Q: What about the mutagenic call (Test System: AMES SALMONELLA TYPHIMURIUM, Strain/Indicator: YG7104, Metabolic Activation: S-9, Method: PREINCUBATION) of the same molecule?
A: active; positive

Q: And the mutagenic call (Test System: AMES SALMONELLA TYPHIMURIUM, Strain/Indicator: YG7104ER, Metabolic Activation: NONE, Method: STANDARD PLATE)?
A: active; positive

Q: And the mutagenic call (Test System: AMES SALMONELLA TYPHIMURIUM, Strain/Indicator: YG7108, Metabolic Activation: RAT LIVER S-9, ETHANOL (4%), Method: PREINCUBATION)?
A: active; positive

Q: And the mutagenic call (Test System: AMES SALMONELLA TYPHIMURIUM, Strain/Indicator: YG7108, Metabolic Activation: S-9, Method: PREINCUBATION)?
A: active; positive

Q: And the mutagenic call (Test System: AMES SALMONELLA TYPHIMURIUM, Strain/Indicator: YG7108E, Metabolic Activation: NONE, Method: STANDARD PLATE)?
A: inactive; negative

Q: What about the mutagenic call (Test System: AMES SALMONELLA TYPHIMURIUM, Strain/Indicator: YG7108ER, Metabolic Activation: NONE, Method: STANDARD PLATE) of the same molecule?
A: active; positive

Q: What about the mutagenic call (Test System: AMES SALMONELLA TYPHIMURIUM, Strain/Indicator: YG7108R, Metabolic Activation: NONE, Method: STANDARD PLATE) of the same molecule?
A: inactive; negative

Q: What about the mutagenic call (Test System: AMES SALMONELLA TYPHIMURIUM, Strain/Indicator: YG7112, Metabolic Activation: S-9, Method: PREINCUBATION) of the same molecule?
A: active; positive

Q: What about the mutagenic call (Test System: AMES SALMONELLA TYPHIMURIUM, Strain/Indicator: YG7113, Metabolic Activation: S-9, Method: PREINCUBATION) of the same molecule?
A: active; positive

Q: And the mutagenic call (Test System: AMES SALMONELLA TYPHIMURIUM, Strain/Indicator: YG7119, Metabolic Activation: S-9, Method: PREINCUBATION)?
A: inactive; negative

Q: And the mutagenic call (Test System: CHINESE HAMSTER V-79, Strain/Indicator: V-79 (HPRT)/6-THIOGUANINE, Metabolic Activation: RAT, HEPATOCYTES)?
A: active; positive

Q: What about the mutagenic call (Test System: CHINESE HAMSTER V-79, Strain/Indicator: V-79 (HPRT)/6-THIOGUANINE, Metabolic Activation: RAT, HEPATOMA, H4IIE CELLS) of the same molecule?
A: active; positive

Q: What about the mutagenic call (Test System: CHINESE HAMSTER V-79, Strain/Indicator: V-79 (HPRT)/6-THIOGUANINE, Metabolic Activation: RAT, LIVER, S-9, AROCLOR 1254) of the same molecule?
A: active; positive

Q: What about the mutagenic call (Test System: CHINESE HAMSTER V-79, Strain/Indicator: V-79/6-THIOGUANINE, Metabolic Activation: NONE, Method: STANDARD PLATE) of the same molecule?
A: inactive; negative

Q: And the mutagenic call (Test System: CHINESE HAMSTER V-79, Strain/Indicator: V-79/6-THIOGUANINE, Metabolic Activation: RAT, HEPATOCYTES, BUTYLATED HYDROXYANISOLE, Method: STANDARD PLATE)?
A: active; positive

Q: And the mutagenic call (Test System: CHINESE HAMSTER V-79, Strain/Indicator: V-79/6-THIOGUANINE, Metabolic Activation: RAT, HEPATOCYTES, Method: STANDARD PLATE)?
A: active; positive

Q: And the mutagenic call (Test System: CHINESE HAMSTER V-79, Strain/Indicator: V-79/6-THIOGUANINE, Metabolic Activation: RAT, LIVER, S-15, PHENOBARBITAL, Method: STANDARD PLATE)?
A: active; positive

Q: And the mutagenic call (Test System: CHINESE HAMSTER V-79, Strain/Indicator: V-79/8-AZAGUANINE, Metabolic Activation: RAT, LIVER, S-15, PHENOBARBITAL, Method: STANDARD PLATE)?
A: active; positive

Q: And the mutagenic call (Test System: CHINESE HAMSTER V-79, Strain/Indicator: V-79/OUABAIN, Metabolic Activation: CELL-MEDIATED, Method: STANDARD PLATE)?
A: active; positive

Q: And the mutagenic call (Test System: CHINESE HAMSTER V-79, Strain/Indicator: V-79/OUABAIN, Metabolic Activation: FREE MICROSOMES M, LIVER, Method: STANDARD PLATE)?
A: active; positive

Q: What about the mutagenic call (Test System: CHINESE HAMSTER V-79, Strain/Indicator: V-79/OUABAIN, Metabolic Activation: HAMSTER, HEPATOCYTES, Method: CELL-MEDIATED) of the same molecule?
A: active; positive

Q: And the mutagenic call (Test System: CHINESE HAMSTER V-79, Strain/Indicator: V-79/OUABAIN, Metabolic Activation: NONE, Method: STANDARD PLATE)?
A: inactive; negative

Q: What about the mutagenic call (Test System: CHINESE HAMSTER V-79, Strain/Indicator: V-79/OUABAIN, Metabolic Activation: RAT, HEPATOCYTES, BUTYLATED HYDROXYANISOLE, Method: STANDARD PLATE) of the same molecule?
A: active; positive

Q: And the mutagenic call (Test System: CHINESE HAMSTER V-79, Strain/Indicator: V-79/OUABAIN, Metabolic Activation: RAT, HEPATOCYTES, Method: STANDARD PLATE)?
A: active; positive

Q: What about the mutagenic call (Test System: CHO/HGPRT, Strain/Indicator: CHO-K1-BH4, Metabolic Activation: MOUSE, IN VIVO, Method: HOST-MEDIATED) of the same molecule?
A: active; positive

Q: And the mutagenic call (Test System: E. COLI, Strain/Indicator: WP2 (HCR), Metabolic Activation: RAT, LIVER, MICROSOMES, KANECHLOR 500, Method: PREINCUBATION)?
A: inactive; negative

Q: And the mutagenic call (Test System: E. COLI, Strain/Indicator: WP2, Metabolic Activation: NONE, Method: STANDARD PLATE)?
A: active; positive

Q: What about the mutagenic call (Test System: E. COLI, Strain/Indicator: WP2, Metabolic Activation: RAT, LIVER, S-9, AROCLOR 1254, Method: STANDARD PLATE) of the same molecule?
A: active; positive

Q: What about the mutagenic call (Test System: E. COLI, Strain/Indicator: WP2 UVRA, Metabolic Activation: HAMSTER, LIVER, S-9, AROCLOR 1254, Method: PREINCUBATION) of the same molecule?
A: inactive; negative

Q: And the mutagenic call (Test System: E. COLI, Strain/Indicator: WP2 UVRA, Metabolic Activation: HAMSTER, LIVER, S-9, Method: PREINCUBATION)?
A: inactive; negative

Q: What about the mutagenic call (Test System: E. COLI, Strain/Indicator: WP2 UVRA, Metabolic Activation: MOUSE, LIVER, S-9, AROCLOR 1254, Method: PREINCUBATION) of the same molecule?
A: inactive; negative

Q: And the mutagenic call (Test System: E. COLI, Strain/Indicator: WP2 UVRA, Metabolic Activation: MOUSE, LIVER, S-9, Method: PREINCUBATION)?
A: inactive; negative

Q: What about the mutagenic call (Test System: E. COLI, Strain/Indicator: WP2 UVRA, Metabolic Activation: NONE, Method: PREINCUBATION) of the same molecule?
A: inactive; negative

Q: And the mutagenic call (Test System: E. COLI, Strain/Indicator: WP2 UVRA, Metabolic Activation: NONE, Method: STANDARD PLATE)?
A: active; positive

Q: What about the mutagenic call (Test System: E. COLI, Strain/Indicator: WP2 UVRA, Metabolic Activation: RAT, LIVER, S-9, AROCLOR 1254, Method: PREINCUBATION) of the same molecule?
A: inactive; negative

Q: And the mutagenic call (Test System: E. COLI, Strain/Indicator: WP2 UVRA, Metabolic Activation: RAT, LIVER, S-9, AROCLOR 1254, Method: STANDARD PLATE)?
A: active; positive

Q: What about the mutagenic call (Test System: E. COLI, Strain/Indicator: WP2 UVRA, Metabolic Activation: RAT, LIVER, S-9, Method: PREINCUBATION) of the same molecule?
A: inactive; negative

Q: And the mutagenic call (Test System: MOUSE LYMPHOMA, Strain/Indicator: L5178Y (TK+/TK-), Metabolic Activation: RAT, LIVER, S-9, AROCLOR 1254, Method: SUSPENSION/PLATE)?
A: active; positive

Q: What about the mutagenic call (Test System: MOUSE LYMPHOMA, Strain/Indicator: L5178Y (TK+/TK-), Metabolic Activation: RAT, LIVER, S-9, Method: SUSPENSION/PLATE) of the same molecule?
A: active; positive

Q: What about the mutagenic call (Test System: UDS HUMAN CELLS, Strain/Indicator: THY INCORP (NON-S-PHASE), Metabolic Activation: NONE, Method: AUTORADIOGRAPHY) of the same molecule?
A: active; positive

Q: And the mutagenic call (Test System: UDS HUMAN CELLS, Strain/Indicator: THY INCORP (NON-S-PHASE), Metabolic Activation: RAT, LIVER, S-9, Method: AUTORADIOGRAPHY)?
A: active; positive

Q: And the mutagenic call (Test System: UDS HUMAN FIBROBLASTS, Strain/Indicator: THY INCORP (NON-S-PHASE), Metabolic Activation: NONE, Method: AUTORADIOGRAPHY)?
A: active; positive

Q: And the mutagenic call (Test System: UDS HUMAN FIBROBLASTS, Strain/Indicator: THY INCORP (NON-S-PHASE), Metabolic Activation: RAT, LIVER, S-9, Method: LIQUID SCINTILLATION COUNTING)?
A: active; positive

Q: And the mutagenic call (Test System: UDS MONKEY HEPATOCYTES, Strain/Indicator: THY INCORP, Metabolic Activation: AROCLOR 1254, Method: AUTORADIOGRAPHY)?
A: active; positive

Q: And the mutagenic call (Test System: UDS MONKEY HEPATOCYTES, Strain/Indicator: THY INCORP, Metabolic Activation: NONE, Method: AUTORADIOGRAPHY)?
A: active; positive

Q: And the mutagenic call (Test System: UDS MOUSE HEPATOCYTES, Metabolic Activation: NONE, Method: IN VIVO-IN VITRO)?
A: active; positive

Q: What about the mutagenic call (Test System: UDS RAT HEPATOCYTES, Strain/Indicator: BROMODEOXYURIDINE INCORP, Metabolic Activation: NONE, Method: FLOW CYTOMETRIC ANALYSIS) of the same molecule?
A: active; positive

Q: What about the mutagenic call (Test System: UDS RAT HEPATOCYTES, Strain/Indicator: THY INCORP, Metabolic Activation: NONE, Method: AUTORADIOGRAPHY) of the same molecule?
A: active; positive

Q: And the mutagenic call (Test System: UDS RAT HEPATOCYTES, Strain/Indicator: THY INCORP, Metabolic Activation: NONE, Method: LIQUID SCINTILLATION COUNTING)?
A: active; positive

Q: And the mutagenic call (Test System: UDS RODENT HEPATOCYTES, Strain/Indicator: THY INCORP (NON-S-PHASE), Method: AUTORADIOGRAPHY)?
A: active; positive

Q: What about the mutagenic call (Test System: UDS RODENT HEPATOCYTES, Strain/Indicator: THY INCORP (NON-S-PHASE), Method: LIQUID SCINTILLATION COUNTING) of the same molecule?
A: active; positive

Q: And the mutagenic call (Test System: UDS, Strain/Indicator: HEPG2/THYMIDINE INCORPORATION, Metabolic Activation: NONE, Method: AUTORADIOGRAPHY)?
A: active; positive
